Measurements as given in patent US20240383875A1, “Benzimidazole Pyridine Derivatives” (Hoffmann-La Roche Inc., priority 2022, published 2024).

Experiments:
Type in all cases: biochemical
[1] = target: SIK1 (Homo sapiens, UniProt P57059); assay: Enzymatic activity assay SIK1, RapidFire mass spectrometry (phosphorylation of CHK-peptide); conditions: RapidFire MS, inhibition of SIK1; read-out: SIK1 RF IC50
Outline: (§1)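 Compounds (12-point, 3-fold, generally 30 μM to 170 pM) were pre-incubated 30 min at ambient temperature with SIK1 (5 nM), SIK2 (0.5 nM) or SIK3 (1.5 nM) in HEPES pH 7.0/magnesium acetate buffer. CHK-peptide (10 μM solution) and ATP (100 μM solution) were then added for 45 min before formic acid quench.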

[2] = target: SIK2 (Homo sapiens, UniProt Q9H0K1); assay: Enzymatic activity assay SIK2, RapidFire mass spectrometry (phosphorylation of CHK-peptide); conditions: RapidFire MS, inhibition of SIK2; read-out: SIK2 RF IC50
SIK2, sequence (Q9H0K1 whole entry): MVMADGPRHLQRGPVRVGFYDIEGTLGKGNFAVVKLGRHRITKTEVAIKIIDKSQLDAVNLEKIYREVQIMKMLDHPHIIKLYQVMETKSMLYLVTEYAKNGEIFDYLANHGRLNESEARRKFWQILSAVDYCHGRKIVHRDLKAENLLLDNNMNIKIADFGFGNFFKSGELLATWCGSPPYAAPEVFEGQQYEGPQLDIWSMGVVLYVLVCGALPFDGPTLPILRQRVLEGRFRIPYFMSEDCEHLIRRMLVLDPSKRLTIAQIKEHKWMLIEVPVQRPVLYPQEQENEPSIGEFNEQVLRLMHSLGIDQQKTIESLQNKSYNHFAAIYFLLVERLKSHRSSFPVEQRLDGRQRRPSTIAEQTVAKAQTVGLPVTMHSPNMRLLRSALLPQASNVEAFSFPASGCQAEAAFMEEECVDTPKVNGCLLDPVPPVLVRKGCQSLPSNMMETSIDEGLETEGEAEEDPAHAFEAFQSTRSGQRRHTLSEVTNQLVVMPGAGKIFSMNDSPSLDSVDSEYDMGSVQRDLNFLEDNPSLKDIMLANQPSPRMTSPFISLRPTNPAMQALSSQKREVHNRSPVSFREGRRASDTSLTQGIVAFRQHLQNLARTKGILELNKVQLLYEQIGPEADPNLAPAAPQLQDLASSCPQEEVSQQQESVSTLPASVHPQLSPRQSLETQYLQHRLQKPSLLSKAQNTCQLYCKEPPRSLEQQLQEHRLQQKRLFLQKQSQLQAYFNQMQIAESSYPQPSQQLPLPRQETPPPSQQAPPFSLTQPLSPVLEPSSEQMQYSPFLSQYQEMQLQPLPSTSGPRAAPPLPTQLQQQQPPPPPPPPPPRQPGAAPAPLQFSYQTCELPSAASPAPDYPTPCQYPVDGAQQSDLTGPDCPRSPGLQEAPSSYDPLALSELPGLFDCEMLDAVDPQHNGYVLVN
Outline: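 SIK2 (0.5 nM) in pH 7.0 HEPES buffer with 10 mM Mg acetate phosphorylates CHK-peptide (10 μM solution) with 100 μM ATP solution, 45 min ambient, then formic acid quench.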

[3] = target: SIK3 (Homo sapiens, UniProt Q9Y2K2); assay: Enzymatic activity assay SIK3, RapidFire mass spectrometry (phosphorylation of CHK-peptide); conditions: RapidFire MS, inhibition of SIK3; read-out: SIK3 RF IC50
SIK3, sequence (Q9Y2K2 whole entry): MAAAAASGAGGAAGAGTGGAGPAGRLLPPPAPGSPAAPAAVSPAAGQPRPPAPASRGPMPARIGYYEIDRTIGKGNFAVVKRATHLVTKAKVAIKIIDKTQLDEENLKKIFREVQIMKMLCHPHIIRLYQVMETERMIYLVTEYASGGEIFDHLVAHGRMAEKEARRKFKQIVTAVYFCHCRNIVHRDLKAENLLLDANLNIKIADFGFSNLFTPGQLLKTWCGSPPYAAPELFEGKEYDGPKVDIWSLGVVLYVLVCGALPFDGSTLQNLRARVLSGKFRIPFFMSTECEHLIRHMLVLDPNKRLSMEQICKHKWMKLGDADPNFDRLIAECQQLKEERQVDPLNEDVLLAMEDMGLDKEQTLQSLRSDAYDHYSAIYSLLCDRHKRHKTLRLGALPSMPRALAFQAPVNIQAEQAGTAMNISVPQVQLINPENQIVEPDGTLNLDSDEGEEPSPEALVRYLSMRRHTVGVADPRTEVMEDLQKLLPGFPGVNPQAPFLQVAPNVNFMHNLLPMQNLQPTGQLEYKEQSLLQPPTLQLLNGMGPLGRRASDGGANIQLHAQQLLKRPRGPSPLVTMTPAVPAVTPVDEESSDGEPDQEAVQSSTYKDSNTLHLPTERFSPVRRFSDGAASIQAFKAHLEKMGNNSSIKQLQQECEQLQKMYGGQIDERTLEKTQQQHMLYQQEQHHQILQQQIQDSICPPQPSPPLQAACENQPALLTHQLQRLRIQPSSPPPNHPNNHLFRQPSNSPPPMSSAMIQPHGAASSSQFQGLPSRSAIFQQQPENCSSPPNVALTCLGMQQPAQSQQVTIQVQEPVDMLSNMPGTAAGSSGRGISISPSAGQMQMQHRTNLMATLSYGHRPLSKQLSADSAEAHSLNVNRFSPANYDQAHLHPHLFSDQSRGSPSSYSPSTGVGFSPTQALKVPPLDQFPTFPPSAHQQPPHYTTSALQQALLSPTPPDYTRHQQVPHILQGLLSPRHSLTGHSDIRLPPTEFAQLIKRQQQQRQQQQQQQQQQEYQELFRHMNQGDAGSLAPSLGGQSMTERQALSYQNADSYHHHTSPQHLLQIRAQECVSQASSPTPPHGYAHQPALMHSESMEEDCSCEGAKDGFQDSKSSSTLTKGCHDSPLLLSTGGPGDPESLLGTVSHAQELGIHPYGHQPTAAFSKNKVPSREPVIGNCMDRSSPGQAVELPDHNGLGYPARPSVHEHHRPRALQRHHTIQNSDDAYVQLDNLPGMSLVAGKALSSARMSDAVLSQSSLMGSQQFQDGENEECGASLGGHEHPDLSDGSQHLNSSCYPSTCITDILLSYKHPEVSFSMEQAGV
Outline: as §1

SIK1, sequence (P57059 whole entry): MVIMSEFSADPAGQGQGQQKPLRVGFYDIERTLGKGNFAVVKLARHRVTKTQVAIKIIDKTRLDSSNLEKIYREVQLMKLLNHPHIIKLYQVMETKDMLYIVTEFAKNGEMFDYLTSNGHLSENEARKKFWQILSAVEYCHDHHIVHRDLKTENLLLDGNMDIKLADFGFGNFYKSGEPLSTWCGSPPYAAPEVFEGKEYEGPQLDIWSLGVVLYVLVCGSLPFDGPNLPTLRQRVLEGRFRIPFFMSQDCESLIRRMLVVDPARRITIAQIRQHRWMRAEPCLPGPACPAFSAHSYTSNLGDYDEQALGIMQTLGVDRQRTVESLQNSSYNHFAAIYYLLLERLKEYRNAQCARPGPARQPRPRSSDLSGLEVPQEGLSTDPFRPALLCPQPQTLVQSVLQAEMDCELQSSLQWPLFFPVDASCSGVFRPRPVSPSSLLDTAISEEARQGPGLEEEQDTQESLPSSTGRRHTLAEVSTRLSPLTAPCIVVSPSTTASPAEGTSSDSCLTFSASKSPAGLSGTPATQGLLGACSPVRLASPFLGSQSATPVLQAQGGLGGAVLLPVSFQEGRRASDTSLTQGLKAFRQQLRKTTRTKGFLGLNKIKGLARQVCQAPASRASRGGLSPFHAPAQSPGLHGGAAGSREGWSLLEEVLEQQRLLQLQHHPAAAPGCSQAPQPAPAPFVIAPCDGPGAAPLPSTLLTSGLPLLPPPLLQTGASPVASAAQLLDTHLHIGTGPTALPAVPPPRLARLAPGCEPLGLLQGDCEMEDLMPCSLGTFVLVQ

Row | SMILES | IC50 [1] | IC50 [2] | IC50 [3]
1 | Cc1ccc(Nc2ccc3c(c2)ncn3-c2ccc([C@@H](C)O)c(-c3cn(CC(F)(F)F)nc3C)n2)nn1 [Example 251, (1R)-1-[6-[5-[(6-Methylpyridazin-3-yl)amino]benzimidazol-1-yl]-2-[3-methyl-1-(2,2,2-trifluoroethyl)pyrazol-4-yl]-3-pyridyl]ethanol] | 63 nM | 0.3 nM | 0.4 nM
2 | Cc1cc(C#N)nn1-c1nc(-n2cnc3cc(N4CCN(C5COC5)CC4)c(Br)cc32)ccc1C(C)O (stereo not drawn) [Example 130, 1-[6-[6-Bromo-5-[4-(oxetan-3-yl)piperazin-1-yl]benzimidazol-1-yl]-3-(1-hydroxyethyl)-2-pyridyl]-5-methyl-pyrazole-3-carbonitrile] | 589 nM | 215 nM | 339 nM
3 | COc1cc2ncn(-c3ccc(CO)c(-c4cccc(Cl)c4F)n3)c2cc1OC [Example 15, (2-(3-Chloro-2-fluorophenyl)-6-(5,6-dimethoxy-1H-benzo[d]imidazol-1-yl)pyridin-3-yl)methanol] | 18 nM | 12.8 nM | 55.4 nM
4 | Cc1ccc(Nc2ccc3c(c2)ncn3-c2ccc(C(C)O)c(C(=O)NCC(F)(F)F)n2)nn1 (stereo not drawn) [Example 124, 3-(1-Hydroxyethyl)-6-[5-[(6-methylpyridazin-3-yl)amino]benzimidazol-1-yl]-N-(2,2,2-trifluoroethyl)pyridine-2-carboxamide; formic acid] | 1520 nM | 36 nM | 10.1 nM
5 | Cc1ccc(Nc2ccc3ncn(-c4ccc(C(C)O)c(N5CCN(CC(F)(F)F)C(=O)C5)n4)c3c2)nn1 (stereo not drawn) [Example 137, 4-[3-(1-Hydroxyethyl)-6-[6-[(6-methylpyridazin-3-yl)amino]benzimidazol-1-yl]-2-pyridyl]-1-(2,2,2-trifluoroethyl)piperazin-2-one] | 5410 nM | 1640 nM | 746 nM
6 | COc1cc2ncn(-c3ccc(C(C)O)c(-n4nc(C#N)cc4C)n3)c2cc1Nc1ccc(C)nn1 (stereo not drawn) [Example 140, 1-[3-(1-Hydroxyethyl)-6-[5-methoxy-6-[(6-methylpyridazin-3-yl)amino]benzimidazol-1-yl]-2-pyridyl]-5-methyl-pyrazole-3-carbonitrile] | 51 nM | 38.8 nM | 174 nM
7 | COc1cc2c(cc1Nc1ccc(C)nn1)ncn2-c1ccc(C(C)O)c(-n2nc(C#N)cc2C)n1 (stereo not drawn) [Example 185, 1-[3-(1-Hydroxyethyl)-6-[6-methoxy-5-[(6-methylpyridazin-3-yl)amino]benzimidazol-1-yl]-2-pyridyl]-5-methyl-pyrazole-3-carbonitrile] | 6 nM | 0.3 nM | 0.7 nM
8 | Cc1cc(C#N)nn1-c1nc(-n2cnc3cc(NC4CCN(C)C(=O)C4)ccc32)ccc1C(C)O (stereo not drawn) [Example 155, 1-[3-(1-Hydroxyethyl)-6-[5-[(2-keto-1-methyl-4-piperidyl)amino]benzimidazol-1-yl]-2-pyridyl]-5-methyl-pyrazole-3-carbonitrile] | 361 nM | 90.2 nM | 26.5 nM
9 | Cc1ccc(Nc2ccc3ncn(-c4ccc([C@@H](C)O)c(-n5nc(C#N)cc5C)n4)c3c2)nn1 [Example 247, 1-[3-[(1R)-1-hydroxyethyl]-6-[6-[(6-methylpyridazin-3-yl)amino]benzimidazol-1-yl]-2-pyridyl]-5-methyl-pyrazole-3-carbonitrile] | 1440 nM | 174 nM | 46.1 nM
10 | Cc1ccc(Nc2ccc3c(c2)ncn3-c2ccc(C(C)O)c(-c3nn(CC(F)(F)F)cc3C)n2)nn1 (stereo not drawn) [Example 349, 1-[6-[5-[(6-methylpyridazin-3-yl)amino]benzimidazol-1-yl]-2-[4-methyl-1-(2,2,2-trifluoroethyl)pyrazol-3-yl]-3-pyridyl]ethanol] | 432 nM | 5.3 nM | 6.6 nM
11 | Cc1ccc(Nc2ccc3c(c2)ncn3-c2ccc(C(C)O)c(N3CC(C)(C#N)C3)n2)nn1 (stereo not drawn) [Example 183, 1-[3-(1-Hydroxyethyl)-6-[5-[(6-methylpyridazin-3-yl)amino]benzimidazol-1-yl]-2-pyridyl]-3-methyl-azetidine-3-carbonitrile] | 2830 nM | 94.5 nM | 17.5 nM
12 | Cc1ccc(Nc2ccc3c(c2)ncn3-c2ccc(C(C)O)c(-n3nc(S(C)(=O)=O)cc3C)n2)nn1 (stereo not drawn) [Example 145, 1-[2-(5-Methyl-3-methylsulfonyl-pyrazol-1-yl)-6-[5-[(6-methylpyridazin-3-yl)amino]benzimidazol-1-yl]-3-pyridyl]ethanol] | 552 nM | 9 nM | 1.4 nM
13 | Cc1ccc(Nc2ccc3c(c2)ncn3-c2ccc(C(C)O)c(-c3cn(CC(C)(F)F)nc3C)n2)nn1 (stereo not drawn) [Example 281, 1-[2-[1-(2,2-difluoropropyl)-3-methyl-pyrazol-4-yl]-6-[5-[(6-methylpyridazin-3-yl)amino]benzimidazol-1-yl]-3-pyridyl]ethanol] | 46 nM | 0.6 nM | 1.2 nM
14 | Cc1ccc(Nc2ccc3ncn(-c4ccc(C(C)O)c(N(C)CC5(C#N)CC5)n4)c3c2)nn1 (stereo not drawn) [Example 172, 1-[[[3-(1-hydroxyethyl)-6-[6-[(6-methylpyridazin-3-yl)amino]benzimidazol-1-yl]-2-pyridyl]-methyl-amino]methyl]cyclopropanecarbonitrile] | 2620 nM | 2090 nM | 1850 nM
15 | Cc1ccc(Nc2cc3ncn(-c4ccc(C(C)O)c(-n5nc(C#N)cc5C)n4)c3cc2OC2CCNC2)nn1 (stereo not drawn) [Example 192, 1-[3-(1-Hydroxyethyl)-6-[5-[(6-methylpyridazin-3-yl)amino]-6-pyrrolidin-3-yloxy-benzimidazol-1-yl]-2-pyridyl]-5-methyl-pyrazole-3-carbonitrile] | 196 nM | 3.1 nM | 4 nM
16 | COC(=N)c1cc(C)n(-c2nc(-n3cnc4cc(Nc5ccc(C)nn5)ccc43)ccc2[C@H](C)O)n1 [Example 276, 1-[3-[(1S)-1-hydroxyethyl]-6-[5-[(6-methylpyridazin-3-yl)amino]benzimidazol-1-yl]-2-pyridyl]-5-methyl-pyrazole-3-carboximidic acid methyl ester] | 82 nM | 2.3 nM | 1.8 nM
17 | Cc1ccc(Nc2ccc3c(c2)ncn3-c2ccc(C(C)O)c(-c3cn(C(F)F)nc3C)n2)nn1 (stereo not drawn) [Example 149, 1-[2-[1-(Difluoromethyl)-3-methyl-pyrazol-4-yl]-6-[5-[(6-methylpyridazin-3-yl)amino]benzimidazol-1-yl]-3-pyridyl]ethanol] | 1290 nM | 8.4 nM | 1.9 nM
18 | Cc1cc(C#N)nn1-c1nc(-n2cnc3ccc(CN4CCCCC4=O)cc32)ccc1C(C)O (stereo not drawn) [Example 215, 1-[3-(1-Hydroxyethyl)-6-[6-[(2-oxo-1-piperidyl)methyl]benzimidazol-1-yl]-2-pyridyl]-5-methyl-pyrazole-3-carbonitrile] | 347 nM | 371 nM | 1860 nM
19 | Cc1ccc(Nc2ccc3c(c2)ncn3-c2ccc(C(C)O)c(-c3cn(C4CC4(F)F)nc3C)n2)nn1 (stereo not drawn) [Example 277, 1-[2-[1-(2,2-difluorocyclopropyl)-3-methyl-pyrazol-4-yl]-6-[5-[(6-methylpyridazin-3-yl)amino]benzimidazol-1-yl]-3-pyridyl]ethanol] | 521 nM | 2 nM | 1.8 nM
20 | Cc1nnc(Nc2ccc3c(c2)ncn3-c2ccc(C(C)O)c(-n3nc(C#N)cc3C)n2)o1 (stereo not drawn) [Example 103, 1-[3-(1-Hydroxyethyl)-6-[5-[(5-methyl-1,3,4-oxadiazol-2-yl)amino]benzimidazol-1-yl]-2-pyridyl]-5-methyl-pyrazole-3-carbonitrile] | 35 nM | 28.8 nM | 17.5 nM
21 | Cc1ccc(Nc2ccc3c(c2)ncn3-c2ccc(C(C)O)c(-n3cc(C)c(C#N)n3)n2)nn1 (stereo not drawn) [Example 170, 1-[3-(1-Hydroxyethyl)-6-[5-[(6-methylpyridazin-3-yl)amino]benzimidazol-1-yl]-2-pyridyl]-4-methyl-pyrazole-3-carbonitrile; formic acid] | 216 nM | 2.1 nM | 1 nM
22 | Cc1cc(C#N)nn1-c1nc(-n2cnc3cc(Nc4ccc(OCC(F)F)nn4)ccc32)ccc1C(C)O (stereo not drawn) [Example 195, 1-[6-[5-[[6-(2,2-Difluoroethoxy)pyridazin-3-yl]amino]benzimidazol-1-yl]-3-(1-hydroxyethyl)-2-pyridyl]-5-methyl-pyrazole-3-carbonitrile] | 20 nM | 3.1 nM | 1.4 nM
23 | Cc1ccc(Nc2ccc3c(c2)ncn3-c2ccc(C(C)O)c(N3C[C@@H](C#N)C[C@H]3C)n2)nn1 (stereo partly drawn) [Example 254, (3S,5R)-1-[3-(1-hydroxyethyl)-6-[5-[(6-methylpyridazin-3-yl)amino]benzimidazol-1-yl]-2-pyridyl]-5-methyl-pyrrolidine-3-carbonitrile] | 5110 nM | 150 nM | 37.3 nM
24 | Cc1ccc(Nc2cc3ncn(-c4ccc([C@H](C)O)c(-n5nc(C#N)cc5C)n4)c3cc2OC(F)F)nn1 [Example 402, 1-[6-[6-(difluoromethoxy)-5-[(6-methylpyridazin-3-yl)amino]benzimidazol-1-yl]-3-[(1S)-1-hydroxyethyl]-2-pyridyl]-5-methyl-pyrazole-3-carbonitrile] | 5 nM | 0.2 nM | 0.3 nM
